Data reported in ChEMBL document CHEMBL1154795, “Aptamers as a model for functional evaluation of LNA and 2'-amino LNA” (Bioorg Med Chem Lett, 2009).

Test: Binding affinity to avidin by surface plasmon resonance assay

Kd	SMILES
9.78 nM	Cc1cn([C@@H]2O[C@H](COP(=O)(O)O[C@H]3[C@@H](O)[C@H](n4ccc(N)nc4=O)O[C@@H]3COP(=O)(O)O[C@H]3[C@@H](O)[C@H](n4cnc5c(=O)[nH]c(N)nc54)O[C@@H]3COP(=O)(O)O[C@H]3[C@@H](O)[C@H](n4cnc5c(=O)[nH]c(N)nc54)O[C@@H]3CO)[C@@H](OP(=O)(O)OC[C@H]3O[C@@H](n4cnc5c(N)ncnc54)[C@H](O)[C@@H]3OP(=O)(O)OC[C@H]3O[C@@H](n4cnc5c(N)ncnc54)[C@H](O)[C@@H]3OP(=O)(O)OC[C@H]3O[C@@H](n4cc(C)c(=O)[nH]c4=O)[C@H](O)[C@@H]3OP(=O)(O)OC[C@H]3O[C@@H](n4cnc5c(N)ncnc54)[C@H](O)[C@@H]3OP(=O)(O)OC[C@H]3O[C@@H](n4cnc5c(=O)[nH]c(N)nc54)[C@H](O)[C@@H]3OP(=O)(O)OC[C@H]3O[C@@H](n4cnc5c(N)ncnc54)[C@H](O)[C@@H]3OP(=O)(O)OC[C@H]3O[C@@H](n4ccc(N)nc4=O)[C@H](O)[C@@H]3OP(=O)(O)OC[C@H]3O[C@@H](n4ccc(N)nc4=O)[C@H](O)[C@@H]3OP(=O)(O)OC[C@H]3O[C@@H](n4cc(C)c(=O)[nH]c4=O)[C@H](O)[C@@H]3OP(=O)(O)OC[C@H]3O[C@@H](n4cnc5c(=O)[nH]c(N)nc54)[C@H](O)[C@@H]3OP(=O)(O)OC[C@H]3O[C@@H](n4cnc5c(=O)[nH]c(N)nc54)[C@H](O)[C@@H]3OP(=O)(O)OC[C@H]3O[C@@H](n4cnc5c(=O)[nH]c(N)nc54)[C@H](O)[C@@H]3OP(=O)(O)OC[C@H]3O[C@@H](n4cnc5c(=O)[nH]c(N)nc54)[C@H](O)[C@@H]3OP(=O)(O)OC[C@H]3O[C@@H](n4cc(C)c(=O)[nH]c4=O)[C@H](O)[C@@H]3OP(=O)(O)OC[C@H]3O[C@@H](n4cc(C)c(=O)[nH]c4=O)[C@H](O)[C@@H]3OP(=O)(O)OC[C@H]3O[C@@H](n4cnc5c(=O)[nH]c(N)nc54)[C@H](O)[C@@H]3OP(=O)(O)OC[C@H]3O[C@@H](n4cnc5c(=O)[nH]c(N)nc54)[C@H](O)[C@@H]3OP(=O)(O)O)[C@H]2O)c(=O)[nH]c1=O
4.2 nM	COP(=O)(O)O[C@H]1[C@@H](O)[C@H](n2cnc3c(=O)[nH]c(N)nc32)O[C@@H]1COP(=O)(O)O[C@H]1[C@@H](O)[C@H](n2cnc3c(=O)[nH]c(N)nc32)O[C@@H]1COP(=O)(O)O[C@H]1[C@@H](O)[C@H](n2cc(C)c(=O)[nH]c2=O)O[C@@H]1COP(=O)(O)O[C@H]1[C@H]2NC[C@]1(COP(=O)(O)O[C@H]1[C@@H](O)[C@H](n3cnc4c(=O)[nH]c(N)nc43)O[C@@H]1COP(=O)(O)O[C@H]1[C@@H](O)[C@H](n3cnc4c(=O)[nH]c(N)nc43)O[C@@H]1COP(=O)(O)O[C@H]1[C@@H](O)[C@H](n3cnc4c(=O)[nH]c(N)nc43)O[C@@H]1COP(=O)(O)O[C@H]1[C@@H](O)[C@H](n3cnc4c(=O)[nH]c(N)nc43)O[C@@H]1COP(=O)(O)O[C@H]1[C@@H](O)[C@H](n3cc(C)c(=O)[nH]c3=O)O[C@@H]1COP(=O)(O)O[C@H]1[C@@H](O)[C@H](n3ccc(N)nc3=O)O[C@@H]1COP(=O)(O)O[C@H]1[C@@H](O)[C@H](n3ccc(N)nc3=O)O[C@@H]1COP(=O)(O)O[C@H]1[C@@H](O)[C@H](n3cnc4c(N)ncnc43)O[C@@H]1COP(=O)(O)O[C@H]1[C@@H](O)[C@H](n3cnc4c(=O)[nH]c(N)nc43)O[C@@H]1COP(=O)(O)O[C@H]1[C@@H](O)[C@H](n3cnc4c(N)ncnc43)O[C@@H]1COP(=O)(O)O[C@H]1[C@@H](O)[C@H](n3cc(C)c(=O)[nH]c3=O)O[C@@H]1COP(=O)(O)O[C@H]1[C@@H](O)[C@H](n3cnc4c(N)ncnc43)O[C@@H]1COP(=O)(O)O[C@H]1[C@@H](O)[C@H](n3cnc4c(N)ncnc43)O[C@@H]1COP(=O)(O)O[C@H]1[C@@H](O)[C@H](n3cc(C)c(=O)[nH]c3=O)O[C@@H]1COP(=O)(O)O[C@H]1[C@@H](O)[C@H](n3ccc(N)nc3=O)O[C@@H]1COP(=O)(O)O[C@H]1[C@H]3OC[C@]1(COP(=O)(O)O[C@H]1[C@@H](O)[C@H](n4cnc5c(=O)[nH]c(N)nc54)O[C@@H]1CO)O[C@H]3n1cnc3c(=O)[nH]c(N)nc31)O[C@H]2n1cc(C)c(=O)[nH]c1=O
13.1 nM	Cc1cn([C@@H]2O[C@H](COP(=O)(O)O[C@H]3[C@@H](O)[C@H](n4ccc(N)nc4=O)O[C@@H]3COP(=O)(O)O[C@H]3[C@@H](O)[C@H](n4cnc5c(=O)[nH]c(N)nc54)O[C@@H]3COP(=O)(O)O[C@H]3[C@@H](O)[C@H](n4cnc5c(=O)[nH]c(N)nc54)O[C@@H]3CO)[C@@H](OP(=O)(O)OC[C@H]3O[C@@H](n4cnc5c(N)ncnc54)[C@H](O)[C@@H]3OP(=O)(O)OC[C@H]3O[C@@H](n4cnc5c(N)ncnc54)[C@H](O)[C@@H]3OP(=O)(O)OC[C@H]3O[C@@H](n4cc(C)c(=O)[nH]c4=O)[C@H](O)[C@@H]3OP(=O)(O)OC[C@H]3O[C@@H](n4cnc5c(N)ncnc54)[C@H](O)[C@@H]3OP(=O)(O)OC[C@H]3O[C@@H](n4cnc5c(=O)[nH]c(N)nc54)[C@H](O)[C@@H]3OP(=O)(O)OC[C@H]3O[C@@H](n4cnc5c(N)ncnc54)[C@H](O)[C@@H]3OP(=O)(O)OC[C@H]3O[C@@H](n4ccc(N)nc4=O)[C@H](O)[C@@H]3OP(=O)(O)OC[C@H]3O[C@@H](n4ccc(N)nc4=O)[C@H](O)[C@@H]3OP(=O)(O)OC[C@H]3O[C@@H](n4cc(C)c(=O)[nH]c4=O)[C@H](O)[C@@H]3OP(=O)(O)OC[C@H]3O[C@@H](n4cnc5c(=O)[nH]c(N)nc54)[C@H](O)[C@@H]3OP(=O)(O)OC[C@H]3O[C@@H](n4cnc5c(=O)[nH]c(N)nc54)[C@H](O)[C@@H]3OP(=O)(O)O)[C@H]2O)c(=O)[nH]c1=O
4.97 nM	Cc1cn([C@@H]2O[C@H](COP(=O)(O)O[C@H]3[C@@H](O)[C@H](n4ccc(N)nc4=O)O[C@@H]3COP(=O)(O)O[C@H]3[C@H]4OC[C@]3(COP(=O)(O)O[C@H]3[C@@H](O)[C@H](n5cnc6c(=O)[nH]c(N)nc65)O[C@@H]3CO)O[C@H]4n3cnc4c(=O)[nH]c(N)nc43)[C@@H](OP(=O)(O)OC[C@H]3O[C@@H](n4cnc5c(N)ncnc54)[C@H](O)[C@@H]3OP(=O)(O)OC[C@H]3O[C@@H](n4cnc5c(N)ncnc54)[C@H](O)[C@@H]3OP(=O)(O)OC[C@H]3O[C@@H](n4cc(C)c(=O)[nH]c4=O)[C@H](O)[C@@H]3OP(=O)(O)OC[C@H]3O[C@@H](n4cnc5c(N)ncnc54)[C@H](O)[C@@H]3OP(=O)(O)OC[C@H]3O[C@@H](n4cnc5c(=O)[nH]c(N)nc54)[C@H](O)[C@@H]3OP(=O)(O)OC[C@H]3O[C@@H](n4cnc5c(N)ncnc54)[C@H](O)[C@@H]3OP(=O)(O)OC[C@H]3O[C@@H](n4ccc(N)nc4=O)[C@H](O)[C@@H]3OP(=O)(O)OC[C@H]3O[C@@H](n4ccc(N)nc4=O)[C@H](O)[C@@H]3OP(=O)(O)OC[C@H]3O[C@@H](n4cc(C)c(=O)[nH]c4=O)[C@H](O)[C@@H]3OP(=O)(O)OC[C@H]3O[C@@H](n4cnc5c(=O)[nH]c(N)nc54)[C@H](O)[C@@H]3OP(=O)(O)OC[C@H]3O[C@@H](n4cnc5c(=O)[nH]c(N)nc54)[C@H](O)[C@@H]3OP(=O)(O)OC[C@H]3O[C@@H](n4cnc5c(=O)[nH]c(N)nc54)[C@H](O)[C@@H]3OP(=O)(O)OC[C@H]3O[C@@H](n4cnc5c(=O)[nH]c(N)nc54)[C@H](O)[C@@H]3OP(=O)(O)OC[C@H]3O[C@@H](n4cc(C)c(=O)[nH]c4=O)[C@H](O)[C@@H]3OP(=O)(O)OC[C@@]34CN[C@@H]([C@H](n5cc(C)c(=O)[nH]c5=O)O3)[C@@H]4OP(=O)(O)OC[C@H]3O[C@@H](n4cnc5c(=O)[nH]c(N)nc54)[C@H](O)[C@@H]3OP(=O)(O)OC[C@H]3O[C@@H](n4cnc5c(=O)[nH]c(N)nc54)[C@H](O)[C@@H]3OP(=O)(O)O)[C@H]2O)c(=O)[nH]c1=O
